According to US20040087571A1, “Methods of using CCR1 antagonists as immunomodulatory agents” (Pfizer Inc, priority 2002, published 2004):

| Structure (SMILES) | melting point [°C] |
| --- | --- |
| CC1CC(C)CC(O)([C@H](C[C@H](O)[C@H](Cc2ccccc2)NC(=O)c2cnc3ccccc3n2)C(N)=O)C1 (stereo partly drawn) [Example 288, Quinoxaline-2-carboxylic acid [1(S)-benzyl-4(S)-carbamoyl-2(S)-hydroxy-4-(1-hydroxy-3,5-dimethyl-cyclohexyl)-butyl]-amide] | 234 to 236 |
| CC(C)(O)CC[C@H](C[C@H](O)[C@H](Cc1ccccc1F)NC(=O)c1cnc2ccccc2n1)C(N)=O [Example 321, Quinoxaline-2-carboxylic acid [4(R)-carbamoyl-1(S)-(2-fluoro-benzyl)-2(S),7-dihydroxy-7-methyl-octyl]-amide] | 147 to 148 |
| CCCC1CCC(O)([C@H](C[C@H](O)[C@H](Cc2ccccc2)NC(=O)c2cnc3ccccc3n2)C(=O)NO)CC1 (stereo partly drawn) [Example 301, Quinoxaline-2-carboxylic acid [1(S)-benzyl-2(S)-hydroxy-4(S)-hydroxycarbamoyl-4-(1-hydroxy-4-propyl-cyclohexyl)-butyl]-amide] | 115 to 117 |
| CNC(=O)[C@H](CC(C)C)C[C@H](O)[C@H](Cc1ccc(O)cc1)NC(=O)c1cnc2ccccc2n1 [Example 65, Quinoxaline-2-carboxylic acid [2(S)-hydroxy-1(S)-(4-hydroxy-benzyl)-6-methyl-4(R)-methylcarbamoyl-heptyl]-amide] | 170 to 172 |
| COc1cc(CCNC(=O)[C@H](CCC(C)(C)F)C[C@H](O)[C@H](Cc2ccccc2)NC(=O)c2cnc3ccccc3n2)cc(OC)c1 [Example 232, Quinoxaline-2-carboxylic acid {1(S)-benzyl-4(R)-[2-(3,5-dimethoxy-phenyl)-ethylcarbamoyl]-7-fluoro-2(S)-hydroxy-7-methyl-octyl}-amide] | 109 to 112 |
| O=C(N[C@@H](Cc1ccccc1)[C@@H](O)C[C@H](C(=O)NO)C1(O)C2CC3CC(C2)CC1C3)c1cnc2ccccc2n1 (stereo partly drawn) [Example 297, Quinoxaline-2-carboxylic acid [1(S)-benzyl-2(S)-hydroxy-4(S)-(2-hydroxy-adamantan-2-yl)-4-hydroxycarbamoyl-butyl]-amide] | 133 to 134 |
| CC(C)(F)CC[C@H](C[C@H](O)[C@H](Cc1ccccc1)NC(=O)c1cnc2ccccc2n1)C(=O)NCC1CCCO1 (stereo partly drawn) [Example 240, Quinoxaline-2-carboxylic acid {1(S)-benzyl-7-fluoro-2(S)-hydroxy-7-methyl-4(R)-[(tetrahydrofuran-2-ylmethyl)-carbamoyl]-octyl}-amide] | 111 to 115 |
| CC(C)CCNC(=O)[C@H](CC(C)C)C[C@H](O)[C@H](Cc1ccccc1)NC(=O)c1cnc2ccccc2c1 [Example 48, Quinoline-3-carboxylic acid [1(S)-benzyl-2(S)-hydroxy-6-methyl-4(R)-(3-methyl-butylcarbamoyl)-heptyl]-amide] | 153 to 154 |
| COc1ccccc1CNC(=O)[C@H](CCC(C)(C)F)C[C@H](O)[C@H](Cc1ccccc1)NC(=O)c1cnc2ccccc2n1 [Example 227, Quinoxaline-2-carboxylic acid [1(S)-benzyl-7-fluoro-2(S)-hydroxy-4(R)-(2-methoxy-benzylcarbamoyl)-7-methyl-octyl]-amide] | 135 |
| CC1(C)CCC(O)([C@H](C[C@H](O)[C@H](Cc2ccccc2)NC(=O)c2cnc3ccccc3n2)C(=O)NO)CC1 [Example 305, Quinoxaline-2-carboxylic acid [1(S)-benzyl-2(S)-hydroxy-4(S)-hydroxycarbamoyl-4-(1-hydroxy-4,4-dimethyl-cyclohexyl)-butyl]-amide] | 118 to 123 |
| NC(=O)[C@@H](C[C@H](O)[C@H](Cc1ccccc1)NC(=O)c1cnc2ccccc2c1)C1CCCCC1 [Example 261, Quinoline-3-carboxylic acid (1(S)-benzyl-4(S)-carbamoyl-4-cyclohexyl-2(S)-hydroxy-butyl)-amide] | 231 |
| NC(=O)[C@H](Cc1ccccc1F)C[C@H](O)[C@H](Cc1ccccc1)NC(=O)c1cnc2ccccc2n1 [Example 280, Quinoxaline-2-carboxylic acid [1(S)-benzyl-4(R)-carbamoyl-5-(2-fluoro-phenyl)-2(S)-hydroxy-pentyl]-amide] | 171 to 173 |
| CC1CCC(O)([C@H](C[C@H](O)[C@H](Cc2ccccc2)NC(=O)c2cnc3ccccc3n2)C(N)=O)C1 (stereo partly drawn) [Example 282, Quinoxaline-2-carboxylic acid [1(S)-benzyl-4(S)-carbamoyl-2(S)-hydroxy-4-(1-hydroxy-3-methyl-cyclopentyl)-butyl]-amide] | 187 to 188 |
| NC(=O)[C@H](Cc1ccccc1Cl)C[C@H](O)[C@H](Cc1ccccc1)NC(=O)c1cnc2ccccc2n1 [Example 274, Quinoxaline-2-carboxylic acid [1(S)-benzyl-4(R)-carbamoyl-5-(2-chloro-phenyl)-2(S)-hydroxy-pentyl]-amide] | 182 to 185 |
| COc1cccc(CNC(=O)[C@H](CCC(C)(C)F)C[C@H](O)[C@H](Cc2ccccc2)NC(=O)c2cnc3ccccc3n2)c1OC [Example 242, Quinoxaline-2-carboxylic acid [1(S)-benzyl-4(R)-(2,3-dimethoxy-benzylcarbamoyl)-7-fluoro-2(S)-hydroxy-7-methyl-octyl]-amide] | 99 to 101 |
| CC1(C)CCC(O)([C@H](C[C@H](O)[C@H](Cc2ccccc2)NC(=O)c2cnc3ccccc3n2)C(N)=O)CC1 [Example 304, Quinoxaline-2-carboxylic acid [1(S)-benzyl-4(S)-carbamoyl-2(S)-hydroxy-4-(1-hydroxy-4,4-dimethyl-cyclohexyl)-butyl]-amide] | 210 to 211 |
| Cc1cccc(C[C@H](C[C@H](O)[C@H](Cc2ccccc2)NC(=O)c2cnc3ccccc3n2)C(N)=O)c1 [Example 293, Quinoxaline-2-carboxylic acid (1(S)-benzyl-4(R)-carbamoyl-2(S)-hydroxy-5-m-tolyl-pentyl)-amide] | 178 to 179 |
| CC(C)(F)CC[C@H](C[C@H](O)[C@H](Cc1ccc(Cl)c(Cl)c1)NC(=O)c1cnc2c(F)c(F)ccc2c1)C(N)=O [Example 156, 7,8-Difluoro-quinoline-3-carboxylic acid [4(R)-carbamoyl-1(S)-(3,4-dichloro-benzyl)-7-fluoro-2(S)-hydroxy-7-methyl-octyl]-amide] | 187 to 189 |
| COc1ccc(CNC(=O)[C@H](CCC(C)(C)F)C[C@H](O)[C@H](Cc2ccccc2)NC(=O)c2cnc3ccccc3n2)cc1 [Example 236, Quinoxaline-2-carboxylic acid [1(S)-benzyl-7-fluoro-2(S)-hydroxy-4(R)-(4-methoxy-benzylcarbamoyl)-7-methyl-octyl]-amide] | 114 to 115 |

Further lines, results first:

| melting point [°C] | Structure (SMILES) |
| --- | --- |
| 147 to 149 | CC(C)(F)CC[C@H](C[C@H](O)[C@H](Cc1ccccc1)NC(=O)c1cnc2ccccc2n1)C(=O)NN [Example 312, Quinoxaline-2-carboxylic acid (1(S)-benzyl-7-fluoro-4(R)-hydrazinocarbonyl-2(S)-hydroxyl-7-methyl-octyl)-amide] |
| 95 to 98 | CNC(=O)[C@H](CC(C)C)C[C@H](O)[C@H](CC1CCC(F)(F)CC1)NC(=O)c1cnc2ccccc2n1 [Example 108, Quinoxaline-2-carboxylic acid [1(S)-(4,4-difluoro-cyclohexylmethyl)-2(S)-hydroxy-6-methyl-4(R)-methylcarbamoyl-heptyl]-amide] |
| 196 to 197 | CNC(=O)[C@H](CC(C)C)C[C@H](O)[C@H](Cc1ccc(OCc2ccccc2)cc1)NC(=O)c1cnc2ccccc2n1 [Example 39, Quinoxaline-2-carboxylic acid [1(S)-(4-benzyloxy-benzyl)-2(S)-hydroxy-6-methyl-4(R)-methylcarbamoyl-heptyl]-amide] |
| 126 to 128 | NC(=O)[C@@H](C[C@H](O)[C@H](Cc1ccccc1)NC(=O)c1cnc2ccccc2n1)C1CCCC1 [Example 171, Quinoxaline-2-carboxylic acid (1(S)-benzyl-4-carbamoyl-4(S)-cyclopentyl-2(S)-hydroxy-butyl)-amide] |
| 168 to 171 | Cc1ccccc1C[C@H](C[C@H](O)[C@H](Cc1ccccc1)NC(=O)c1cnc2ccccc2n1)C(N)=O [Example 275, Quinoxaline-2-carboxylic acid (1(S)-benzyl-4(R)-carbamoyl-2(S)-hydroxy-5-o-tolyl-pentyl)-amide] |
| 110 to 120 | CC(C)(O)CC[C@H](C[C@H](O)[C@H](Cc1ccc(F)c(F)c1)NC(=O)c1cnc2ccccc2n1)C(N)=O [Example 323, Quinoxaline-2-carboxylic acid [4(R)-carbamoyl-1(S)-(3,4-difluoro-benzyl)-2(S),7-dihydroxy-7-methyl-octyl]-amide] |
| 158 to 162 | CC(C)C[C@H](C[C@H](O)C(Cc1ccccc1)NC(=O)c1cnc2ccccc2c1)C(=O)NCCO (stereo partly drawn) [Example 33, Quinoline-3-carboxylic acid [1-benzyl-2(S)-hydroxy-4(R)-(2-hydroxy-ethylcarbamoyl)-6-methyl-heptyl]-amide] |
| 206 to 207 | NC(=O)[C@@H](C[C@H](O)[C@H](Cc1ccccc1)NC(=O)c1cnc2ccccc2n1)C1(O)C2CC3CC(C2)CC1C3 (stereo partly drawn) [Example 295, Quinoxaline-2-carboxylic acid [1(S)-benzyl-4(S)-carbamoyl-2(S)-hydroxy-4-(2-hydroxy-adamantan-2-yl)-butyl]-amide] |
| 182 to 186 | NC(=O)[C@H](Cc1ccccc1)C[C@H](O)[C@H](Cc1ccccc1)NC(=O)c1cnc2c(c1)CCC2 [Example 286, 6,7-Dihydro-5H-[1]pyrindine-3-carboxylic acid (1(S)-benzyl-4(R)-carbamoyl-2(S)-hydroxy-5-phenyl-pentyl)-amide] |
| 207 to 210 | CC(C)(F)CC[C@H](C[C@H](O)[C@H](Cc1ccccc1)NC(=O)c1cnc2ccccc2n1)C(=O)NCCc1ccc(S(N)(=O)=O)cc1 [Example 216, Quinoxaline-2-carboxylic acid {1(S)-benzyl-7-fluoro-2(S)-hydroxy-7-methyl-4(R)-[2-(4-sulfamoyl-phenyl)-ethylcarbamoyl]-octyl}-amide] |
